The values below come from patent US20100168038A1, “USE OF COMPOUNDS IN COMBINATION WITH GAMMA-IRRADIATION FOR THE TREATMENT OF CANCER” (priority 2006, published 2010).

In the assay the target is T1, TPP II (Mus musculus, UniProt Q64514).
T1 construct: 1 ug of high molecular weight protein was used as enzyme in peptidase assays; endogenous in cells
As to the kind of experiment: TPP II peptidase assay: cleavage of fluorogenic substrate AAF-AMC by enriched TPP II. The assay is classed as biochemical. As to conditions: for cleavage of AAF-AMC in presence of compound, mean: mean of 3 readings; for cleavage of AAF-AMC in presence of compound: single reading. How it is done: In one non-limiting example of purification of TPP II, 100×10^6 cells (such as EL-4 cells) were sedimented and lysed by vortexing in glass beads and homogenisation buffer (50 mM Tris Base pH 7.5, 250 mM Sucrose, 5 mM MgCl2, 1 mM DTT). Cellular lysates were subjected to differential centrifugation; first the cellular homogenate was centrifuged at 14,000 rpm for 15 min, and then the supernatant was transferred to ultra-centrifugation tubes. Next the sample was ultra-centrifugated at 100,000×g for 1 hour, and the supernatant (denoted as cytosol in most biochemical literature) was subjected to 100,000×g centrifugation for 5 hours, which sedimented high molecular weight cytosolic proteins/protein complexes. The resulting pellet dissolved in 50 mM Tris Base pH 7.5, 30% Glycerol, 5 mM MgCl2, and 1 mM DTT, and 1 ug of high molecular weight protein was used as enzyme in peptidase assays.
It is possible to test the activity of TPP II using for example the substrate AAF-AMC (Sigma, St. Louis, Mo.). This may for example be used at 100 uM concentration in 100 ul of test buffer composed of 50 mM Tri Base pH 7.5, 5 mM MgCl2 and 1 mM DTT. It is possible to stop reactions using dilution with 900 ul 1% SDS solution. Cleavage activity may be measured for example by emission at 460 nm in a LS50B Luminescence Spectrometer (Perkin Elmer, Boston, Mass.).
Protein Purification, Peptidase Assays and Analysis of DNA Fragmentation. 100×10^6 cells were sedimented and lysed by vortexing in glass beads and homogenisation buffer (50 mM Tris Base pH 7.5, 250 mM Sucrose, 5 mM MgCl2, 1 mM DTT). Cellular lysates were submitted to differential centrifugation where a supernatant from a 1 hour centrifugation at 100,000×g (cytosol) was submitted to 100,000×g centrifugation for 3-5 hours, which sedimented high molecular weight cytosolic proteins/protein complexes. The resulting pellet dissolved in 50 mM Tris Base pH 7.5, 30% Glycerol, 5 mM MgCl2, and 1 mM DTT, and 1 micro-g of high molecular weight protein was used as enzyme in peptidase assays or in Western blotting for TPP II expression. To test the activity of TPP II we used the substrate AAF-AMC (Sigma, St. Louis, Mo.), at 100 micro-M concentration in 100 micro-l of test buffer composed of 50 mM Tri Base pH 7.5, 5 mM MgCl2 and 1 mM DTT. Cleavage activity was measured by emission at 460 nm in a LS50B Luminescence Spectrometer (Perkin Elmer, Boston, Mass.). For analysis of DNA fragmentation cells were seeded in 12-well plates at 10^6 cells/ml and exposed to 25 micro-M etoposide, a DNA topoisomerase II inhibitor commonly used as an apoptosis-inducing agent, to starvation (50% PBS). Cells were seeded at 10^6 cells/ml in 12-well plates and incubated for the indicated times, usually 18-24 hours. DNA from EL-4 control and adapted cells was purified by standard chloroform extraction, and 2.5 micro-g of DNA was loaded on 1.8% agarose gel for detection of DNA from apoptotic cells.
TPP II protein was enriched, and then a TPP II-preferred fluorogenic substrate AAF-AMC was used. 100×10^6 cells were sedimented and lysed by vortexing in glass beads and homogenisation buffer (50 mM Tris Base pH 7.5, 250 mM Sucrose, 5 mM MgCl2, 1 mM DTT). Cellular lysates were subjected to differential centrifugation; first the cellular homogenate was centrifuged at 14,000 rpm for 15 min, and then the supernatant was transferred to ultra-centrifugation tubes. Next the sample was ultra-centrifugated at 100,000×g for 1 hour, and the supernatant (denoted as cytosol in most biochemical literature) was subjected to 100,000×g centrifugation for 5 hours, which sedimented high molecular weight cytosolic proteins/protein complexes.

SMILES strings stand for the structures. Where “and” joins values, the source holds several entries; their conditions need not be identical. Equal entries are not always repeated. Residues, ends and D or L forms follow the SMILES beside them.

T1 sequence (Q64514 2-1262 limits assumed): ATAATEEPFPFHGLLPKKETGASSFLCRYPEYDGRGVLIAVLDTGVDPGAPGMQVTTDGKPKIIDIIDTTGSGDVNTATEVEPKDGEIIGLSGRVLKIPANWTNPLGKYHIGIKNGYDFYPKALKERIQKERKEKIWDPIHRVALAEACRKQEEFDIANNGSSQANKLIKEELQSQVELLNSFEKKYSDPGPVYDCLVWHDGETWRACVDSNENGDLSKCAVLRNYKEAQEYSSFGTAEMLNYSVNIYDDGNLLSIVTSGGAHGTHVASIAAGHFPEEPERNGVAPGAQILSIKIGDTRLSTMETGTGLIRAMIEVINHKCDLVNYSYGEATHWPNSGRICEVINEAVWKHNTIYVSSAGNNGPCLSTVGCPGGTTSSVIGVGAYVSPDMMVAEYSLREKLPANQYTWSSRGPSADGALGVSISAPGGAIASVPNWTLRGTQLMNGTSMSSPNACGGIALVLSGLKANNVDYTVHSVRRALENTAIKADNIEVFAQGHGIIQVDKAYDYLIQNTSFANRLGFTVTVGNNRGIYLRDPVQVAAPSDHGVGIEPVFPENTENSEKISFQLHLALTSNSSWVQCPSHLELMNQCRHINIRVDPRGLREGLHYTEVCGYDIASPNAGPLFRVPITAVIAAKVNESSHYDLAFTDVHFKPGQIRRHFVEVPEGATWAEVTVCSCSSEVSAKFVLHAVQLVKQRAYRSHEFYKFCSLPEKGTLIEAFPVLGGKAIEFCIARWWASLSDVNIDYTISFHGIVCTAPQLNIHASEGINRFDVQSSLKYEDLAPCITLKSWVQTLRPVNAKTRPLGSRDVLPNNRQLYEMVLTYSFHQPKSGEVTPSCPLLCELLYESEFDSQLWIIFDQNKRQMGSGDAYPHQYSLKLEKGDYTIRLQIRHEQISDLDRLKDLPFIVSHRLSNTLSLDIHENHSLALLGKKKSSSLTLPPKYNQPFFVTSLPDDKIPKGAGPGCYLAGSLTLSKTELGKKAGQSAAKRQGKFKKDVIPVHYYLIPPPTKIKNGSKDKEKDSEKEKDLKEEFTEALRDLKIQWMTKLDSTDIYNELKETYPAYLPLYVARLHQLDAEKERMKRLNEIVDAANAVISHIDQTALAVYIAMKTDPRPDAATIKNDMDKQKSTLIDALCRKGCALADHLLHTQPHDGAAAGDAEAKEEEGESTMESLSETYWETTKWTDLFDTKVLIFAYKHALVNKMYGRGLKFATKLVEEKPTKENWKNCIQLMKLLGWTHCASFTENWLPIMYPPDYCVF

`CC(C)C[C@H](NC(=O)CNC(=O)OCc1ccccc1)C(=O)N[C@@H](C)C(=O)O` [Z-GLA-OH, Z-Gly-Leu-Ala-OH] (HELM PEPTIDE1{[O=C(OCc1ccccc1)[*:2]].G.L.A}$$$$V2.0): the “TPPII inhibition, in words” value is “efficiently inhibited TPPII”. Besides, for the setting “compound 1 nM”, the “cleavage of AAF-AMC in presence of compound, mean” value (“cleavage of AAF-AMC … mean” for short) is 32.85 fluorometric units; the “cleavage of AAF-AMC in presence of compound” value was 32.54 fluorometric units and 32.61 fluorometric units and 33.41 fluorometric units. Besides, under “compound 10 nM”, the “cleavage of AAF-AMC … mean” value amounted to 22.70 fluorometric units; the “cleavage of AAF-AMC in presence of compound” value is 21.74 fluorometric units and 21.93 fluorometric units and 24.44 fluorometric units. Also, for the setting “compound 100 nM”, the “cleavage of AAF-AMC … mean” value is listed as 14.35 fluorometric units; the “cleavage of AAF-AMC in presence of compound” value is 14.43 fluorometric units and 14.26 fluorometric units and 14.37 fluorometric units. Besides, for the setting “compound 1 uM”, the “cleavage of AAF-AMC … mean” value came out at 11.60 fluorometric units; the “cleavage of AAF-AMC in presence of compound” value was 11.43 fluorometric units and 11.9 fluorometric units and 11.46 fluorometric units. In addition, where the note is “compound 10 uM”, the “cleavage of AAF-AMC … mean” value is on record as 7.21 fluorometric units; the “cleavage of AAF-AMC in presence of compound” value is 6.47 fluorometric units and 7.66 fluorometric units and 7.49 fluorometric units. In addition, under “compound 100 uM”, the “cleavage of AAF-AMC … mean” value was found to be 1.38 fluorometric units; the “cleavage of AAF-AMC in presence of compound” value was 1.14 fluorometric units and 1.44 fluorometric units and 1.55 fluorometric units. Besides, for the setting “partially purified TPPII enzyme, fluorimetry, read-out: Ki50, inhibited TPPII cleavage of the substrate AAF-AMC”, the Ki is ~0.01 µM.
